Source: US10913757B2, “Hydroxycinnamic derivatives, methods and uses thereof” (UNIVERSIDADE DO PORTO, priority 2016, dated 2021)
Entries after “also recorded” stand apart in the source; their conditions may differ.

How the values were obtained:
[1] = test system: mitochondrial permeability transition pore (mPTP) of RLM; test: Mitochondrial permeability transition pore (mPTP) opening, mitochondrial swelling; assay type: biochemical, rat; conditions: 2.5, 5 and 10 μM, pre-incubated 5 min before calcium, FIG. 7A-C
Description: In an embodiment, the AntiOxCINs effects on mitochondrial permeability transition pore (mPTP) opening were evaluated. In general, less lipophilic AntiOxCINs had no effect on mPTP opening for all tested concentrations (FIG. 7A-C).
In an embodiment, the evaluation of AntiOxCINs functional mitochondrial toxicity profile was performed in rat liver mitochondria (RLM). RLM were prepared by tissue homogenization followed by differential centrifugations in ice-cold buffer containing 250 mM sucrose, 10 mM HEPES (pH 7.4), 1 mM EGTA, and 0.1% fat-free bovine serum albumin. After obtaining a crude mitochondrial preparation, pellets were washed twice and resuspended in washing buffer (250 mM sucrose and 10 mM HEPES, pH 7.4). The protein concentration was determined by the biuret assay using BSA as a standard.
In an embodiment, the effect of AntiOxCINs on mitochondrial permeability transition pore opening were measured as follows: mitochondrial swelling was estimated by measuring the alterations of light scattered from a mitochondrial suspension, as monitored spectrophotometrically at 540 nm. Increasing concentrations of AntiOxCINs (2.5-10 μM) were added to the reaction medium (200 mM sucrose, 1 mM KH2PO4, 10 mM Tris (pH 7.4), 5 mM succinate and 10 μM EGTA supplemented with 1.5 μM rotenone), in the presence of RLM (1 mg), and allowed to incubate for a 5 min period before the assay. The experiments were initiated by the addition of a suitable concentration of Ca^2+ (15-50 μM), titrated every day. […] The reaction was stirred continuously and the temperature maintained at 37° C. Data are means±SEM of three independent experiments and are expressed as Aabsorbance at 540 nm.

HepG2 cells [2] = test: Cytotoxicity screening in HepG2 cells, SRB assay; assay type: cell-based, human; conditions: HepG2, 48 hour
Description: In an embodiment, and as an example, the cytotoxicity of two AntiOxCINs (AntiOxCIN4 and AntiOxCIN6) was assessed using monolayer cultures of human hepatocytes from hepatocellular carcinoma (HepG2) and SRB method (FIG. 8A). […] Remarkably, at concentrations higher than 2.5 μM AntiOxCIN6 inhibited cell proliferation, while at concentrations higher than 100 μM AntiOxCIN4 stimulated cell proliferation.
(§1) In an embodiment, the cytotoxicity profile of AntiOxCIN4 and AntiOxCIN6 was evaluated in human hepatocellular carcinoma HepG2 cells. Human hepatocellular carcinoma HepG2 cells were cultured in high-glucose medium composed by Dulbecco's modified Eagle's medium (DMEM; D5648) supplemented with sodium pyruvate (0.11 g/L), sodium bicarbonate (1.8 g/L) and 10% fetal bovine serum (FBS) and 1% of antibiotic penicillin-streptomycin 100× solution. Cells were maintained at 37° C. in a humidified incubator with 5% CO2. HepG2 cells were seeded at density of 4×10^4 cells/mL and grown for 24 hours before treatment.
In an embodiment the cytotoxicity screening was performed as follows: cells were placed on 48-well plate (2×10^4 cells/500 μL) and then were incubated during 48 hour with AntiOxCIN4 and AntiOxCIN6 concentrations ranging 25 μM to 500 μM or 0.5 μM to 25 μM, respectively. After incubation, sulforhodamine B (SRB) assay was used for cell density determination based on the measurement of cellular protein content. Briefly, after incubation, the medium was removed and wells rinsed with PBS (1×). Cells were fixed by adding 1% acetic acid in 100% methanol for at least 2 hours at −20° C. Later, the fixation solution was discarded and the plates were dried in an oven at 37° C. […] Finally, 200 μl of each supernatant was transferred in 96-well plates and optical density was measured at 540 nm. Data are means±SEM of four independent experiments and the results are expressed as percentage of control (control=100%), which represents the cell density without any treatment in the respective time point.

HepG2 cells [3] = test: Cellular antioxidant screening in HepG2 cells (FeSO4 or H2O2), SRB assay; assay type: cell-based, human; conditions: pre-incubated 1 hour, AntiOxCIN4 100 μM, AntiOxCIN6 2.5 μM; for prevention of iron-induced HepG2 cytotoxicity (cell proliferation): 250 μM FeSO4 48 h; for prevention of hydrogen peroxide-induced HepG2 cytotoxicity (cell proliferation): 250 μM H2O2 48 h
Description: In an embodiment, as an example, the antioxidant cellular outline of AntiOxCIN4 and AntiOxCIN6 was assessed using monolayer cultures of human hepatocytes from hepatocellular carcinoma (HepG2) and two different oxidative stressors (250 μM FeSO4 or 250 μM H2O2) (FIG. 8B). […] The higher efficacy of AntiOxCIN4 is in agreement with the data attained from TAC assays (Table 1) and RLM assays (FIG. 4).
as §1
In an embodiment, the cellular antioxidant screening was performed as follows: cells were placed on 48-well plate (2×10^4 cells/500 μL) and pre-incubated with non-toxic concentrations of AntiOxCIN4 (100 μM) or AntiOxCIN6 (2.5 μM) for 1 hour. After the incubation time, cells were exposed to oxidative stress conditions by the addition of 250 μM FeSO4 or 250 μM H2O2 for 48 hours. At the end of incubation time, SRB assay was used for cell density determination as previously described. Data are means±SEM of four independent experiments. The results are expressed as percentage of control (control=100%), which represents the cell density without any treatment in the respective time point.

HepG2 cells [4] = test: Morphological alterations in HepG2 cells, vital epifluorescence microscopy (TMRM, Hoechst 33342); assay type: cell-based, human; conditions: HepG2, 48 h; AntiOxCIN4 100 μM, AntiOxCIN6 2.5 μM, FIG. 8C; methanesulfonate
Description: In an embodiment, as an example, the morphological changes in mitochondrial network and nuclei chromatin condensation of AntiOxCIN4 and AntiOxCIN6 have been determined. HepG2 cells were treated with AntiOxCINs for 48 h and then incubated with the mitochondrialΔΨ-dependent fluorescent probes TMRM and DNA dye Hoechst 33342.
In an embodiment, the detection of morphological alterations, including chromatin condensation and mitochondrial polarization and distribution by vital epifluorescence microscopy was performed as follows: cells were placed in 6-well plates with a glass coverslip per well (8×10^4 cells/2 mL) and then treated with non-toxic concentrations of AntiOxCIN4 or AntiOxCIN6 for 48 hours. Thirty minutes prior the end of the incubation time, the mitochondrial network was stained with TMRM (100 nM) while nuclei were stained with Hoechst 33342 (1 μg/mL), to detect apoptotic chromatin condensation, in HBSS (NaCl 137 mM, KCl 5.4 mM, NaHCO3 4.2 mM, Na2HPO4 0.3 mM, KH2PO4 0.4 mM, CaCl2 1.3 mM, MgCl2 0.5 mM, MgSO4 0.6 mM, and D-glucose 5.6 mM, pH 7.4) at 37° C. under dark conditions. Glass coverslips were removed from the wells and placed on glass slides with a drop of mounting medium. The cell images were acquired using a Zeiss LSM 510Meta microscope and analysed with ImageJ software 1.49v. […]

Structure (SMILES) | effect on calcium-dependent mPTP opening [1] | concentration above which cell proliferation was stimulated (HepG2 cells [2]; FIG. 8A) | prevention of iron-induced HepG2 cytotoxicity (cell proliferation) (HepG2 cells [3]) | prevention of hydrogen peroxide-induced HepG2 cytotoxicity (cell proliferation) (HepG2 cells [3]) | nuclear morphology and mitochondrial polarization (HepG2 cells [4]) | toxicity toward HepG2 cells (comparison) (HepG2 cells [2]) | concentration above which cell proliferation was inhibited (HepG2 cells [2]; FIG. 8A)
CS(=O)(=O)[O-].O=C(/C=C/c1ccc(O)c(O)c1)NCCCCCCCC[P+](c1ccccc1)(c1ccccc1)c1ccccc1 [AntiOxCIN3, (E)-(8-(3-(3,4-dihydroxyphenyl)acrylamido)octyl)triphenylphosphoniummethanesulfonate] | inhibition of calcium-dependent mPTP opening |  |  |  |  |  | 
CS(=O)(=O)[O-].O=C(/C=C/c1cc(O)c(O)c(O)c1)NCCCCCC[P+](c1ccccc1)(c1ccccc1)c1ccccc1 [AntiOxCIN4, (E)-(6-(3-(3,4,5-trihydroxyphenyl)prop-2-enamido)hexyl)triphenylphosphonium methanesulfonate] |  | higher than 100 μM | significantly prevented | significantly prevented | did not induce nuclear morphological changes neither mitochondrial depolarization; also recorded: did not disturb the normal nuclear morphology and mitochondrial polarization |  | 
CS(=O)(=O)[O-].O=C(/C=C/c1cc(O)c(O)c(O)c1)NCCCCCCCC[P+](c1ccccc1)(c1ccccc1)c1ccccc1 [AntiOxCIN5, (E)-(8-(3-(3,4,5-trihydroxyphenyl)acrylamido)octyl)triphenylphosphonium methanesulfonate] | inhibition of calcium-dependent mPTP opening |  |  |  |  |  | 
CS(=O)(=O)[O-].O=C(/C=C/c1ccc(O)c(O)c1)NCCCCCCCCCC[P+](c1ccccc1)(c1ccccc1)c1ccccc1 [AntiOxCIN6, (E)-(10-(3-(3,4-dihydroxyphenyl)acrylamido)decyl)triphenylphosphonium methanesulfonate] | inhibition of calcium-dependent mPTP opening |  | significantly prevented | significantly prevented | did not induce nuclear morphological changes neither mitochondrial depolarization; also recorded: did not disturb the normal nuclear morphology and mitochondrial polarization | higher toxicity than AntiOxCIN4 | higher than 2.5 μM
CS(=O)(=O)[O-].O=C(/C=C/c1cc(O)c(O)c(O)c1)NCCCCCCCCCC[P+](c1ccccc1)(c1ccccc1)c1ccccc1 [AntiOxCIN7, (E)-(10-(3-(3,4,5-trihydroxyphenyl)acrylamido)decyl)triphenylphosphonium methanesulfonate] | inhibition of calcium-dependent mPTP opening |  |  |  |  |  | 
